Measured values taken from patent US7723304B2, “Systems for delivery and release of angiotensin-(1-7)” (Universidade Federal De Minas Gerais—UFMG, priority 2001, dated 2010).

Experiments:
[1] = system: G protein-coupled receptor, MAS; experiment: binding of labeled angiotensin-(1-7) in mouse kidney slices (normal or MAS knockout); details: MAS knockout mice, 4 °C, autoradiography or fluorescent microscopy
Procedure: (§1) After incubation for variable intervals at 4 °C the slices were exposed to autoradioghraphic films or analysed by flourescent microscopy. […] The functional test for the absence of binding in knockout mice was made using the water diuresis model (administration of 5% of the body weight, of H2O).

[2] = system: G protein-coupled receptor, MAS; experiment: water diuresis model in wild type and MAS knockout mice; type: in vivo, mouse; details: MAS knockout mice, water load 5% of body weight
Procedure: (§2) Angiotensin-(1-7) labeled with 125I or rhodamine-angiotensin-(1-7), fluorescent, were incubated with mouse kidney slices from normal or MAS knockout animals. After incubation for variable intervals at 4 °C the slices were exposed to autoradioghraphic films or analysed by flourescent microscopy. In the knockout mice the specif binding for angiotensin-(1-7) disappeared while the binding for Ang II or Ang IV, used as controls, was inaltered. The Ang_(1-7) binding in kidney slices of wild type mice was displaced by the analogues D-Ala^7-Angiotensin-(1-7) e D-Pro^7-Angiotensin-(1-7). The functional test for the absence of binding in knockout mice was made using the water diuresis model (administration of 5% of the body weight, of H2O). […] In MAS knockout mice the antidiuretic effect of Ang-(1-7) was absent.

[3] = target: T1, G protein-coupled receptor, MAS (Mus musculus, UniProt P30554); experiment: as above; type: in vivo; details: wild type mice, 4 pmol/10 g BW, water load 5% of body weight
T1 construct: from tissue; host or cells: mouse kidney slices (wild type; MAS knockout as control)
T1 sequence (P30554 1-324): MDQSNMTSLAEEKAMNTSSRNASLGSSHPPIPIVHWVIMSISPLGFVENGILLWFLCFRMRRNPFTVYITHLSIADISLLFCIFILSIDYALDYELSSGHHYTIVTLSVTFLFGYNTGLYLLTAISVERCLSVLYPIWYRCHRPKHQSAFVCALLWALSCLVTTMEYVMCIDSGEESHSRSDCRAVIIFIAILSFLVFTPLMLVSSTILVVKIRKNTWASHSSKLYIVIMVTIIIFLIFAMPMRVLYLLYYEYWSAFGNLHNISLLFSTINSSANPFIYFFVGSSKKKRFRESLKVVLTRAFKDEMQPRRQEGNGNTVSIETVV
Procedure: as §2

ACE = ACE (Homo sapiens, UniProt P12821); details: read-out: IC50 for inhibition of ACE; cited from earlier work
Wistar rats = details: free (not encapsulated) peptide, 25-50 ng in the RVLM, previous studies; cited from earlier work
[4] = target: T1, G protein-coupled receptor, MAS; experiment: binding of labeled angiotensin-(1-7) in mouse kidney slices (normal or MAS knockout); details: wild type mice
Procedure: as §1

Chain of ACE (P12821 30-1306, species assumed): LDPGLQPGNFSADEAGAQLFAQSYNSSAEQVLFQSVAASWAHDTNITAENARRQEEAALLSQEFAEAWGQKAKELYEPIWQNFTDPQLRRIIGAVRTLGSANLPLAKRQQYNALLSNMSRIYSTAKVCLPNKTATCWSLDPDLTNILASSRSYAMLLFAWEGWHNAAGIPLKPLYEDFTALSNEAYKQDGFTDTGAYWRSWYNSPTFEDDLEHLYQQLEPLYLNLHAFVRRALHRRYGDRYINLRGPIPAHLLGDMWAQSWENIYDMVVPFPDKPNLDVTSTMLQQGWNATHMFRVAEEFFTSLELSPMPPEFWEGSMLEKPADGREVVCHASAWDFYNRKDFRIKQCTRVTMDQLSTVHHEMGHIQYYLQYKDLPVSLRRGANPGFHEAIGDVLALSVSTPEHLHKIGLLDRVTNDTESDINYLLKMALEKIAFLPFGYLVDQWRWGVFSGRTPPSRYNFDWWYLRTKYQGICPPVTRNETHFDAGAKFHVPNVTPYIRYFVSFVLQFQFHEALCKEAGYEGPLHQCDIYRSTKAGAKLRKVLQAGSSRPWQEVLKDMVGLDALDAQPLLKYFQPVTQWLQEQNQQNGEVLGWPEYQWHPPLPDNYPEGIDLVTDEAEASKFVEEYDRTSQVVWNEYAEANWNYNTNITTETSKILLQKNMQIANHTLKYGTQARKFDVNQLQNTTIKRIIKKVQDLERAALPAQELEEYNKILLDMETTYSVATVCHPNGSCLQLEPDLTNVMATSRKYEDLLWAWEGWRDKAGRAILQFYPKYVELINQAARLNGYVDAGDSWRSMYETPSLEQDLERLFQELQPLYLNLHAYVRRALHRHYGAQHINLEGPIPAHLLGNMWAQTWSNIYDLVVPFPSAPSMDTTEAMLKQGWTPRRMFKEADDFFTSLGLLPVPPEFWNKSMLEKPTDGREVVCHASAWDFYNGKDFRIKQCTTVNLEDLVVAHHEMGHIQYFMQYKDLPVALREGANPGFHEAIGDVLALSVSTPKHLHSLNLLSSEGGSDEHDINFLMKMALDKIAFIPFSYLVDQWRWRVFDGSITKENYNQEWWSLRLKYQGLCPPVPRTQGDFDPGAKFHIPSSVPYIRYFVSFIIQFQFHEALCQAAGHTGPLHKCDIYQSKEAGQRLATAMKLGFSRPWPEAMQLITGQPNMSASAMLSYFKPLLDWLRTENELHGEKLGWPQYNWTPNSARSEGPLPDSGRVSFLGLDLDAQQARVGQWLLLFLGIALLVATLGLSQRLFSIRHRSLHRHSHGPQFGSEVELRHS

Row | Compound | binding in kidney slices of MAS knockout mice [1] | displacement of Ang-(1-7) binding in kidney slices [4] | other results
1 | CC[C@H](C)[C@H](NC(=O)[C@H](Cc1ccc(O)cc1)NC(=O)[C@@H](N)C(C)C)C(=O)N[C@@H](Cc1cnc[nH]1)C(=O)N1CCC[C@H]1C(=O)N[C@@H](Cc1ccccc1)C(=O)O [Ang IV] | inaltered | – | –
2 | DRVYIHP [Ang-(1-7), Asp-Arg-Val-Tyr-Ile-His-Pro] | disappeared | – | antidiuretic effect [2]: absent; urine volume (antidiuresis) [3]: reduction of the urine volume; IC50 (ACE): ~1000 nM; duration of increase of PAM (Wistar rats): approximately 10 min; increase of PAM (Wistar rats): 15 mmHg
3 | D-[Ala^7]-Ang-(1-7) [D-Ala^7-Angiotensin-(1-7)] | – | displaced | –
4 | Ang II: main peptide of RAS, used as binding control (DRVYIHPF; Angiotensin-2; UniProt P01019 25-32, looked up) | inaltered | – | –
5 | D-Pro7-Ang-(1-7) [D-Pro^7-Angiotensin-(1-7)] | – | displaced | –
